This is an account of results in patent US7199219B1, “Polypeptides derived from vitamin D nuclear receptor, and their uses in particular for screening vitamin D analogues” (Centre National de la Recherche Scientifique, priority 1999, dated 2007).

In one assay the target is T1, VDR (Bos taurus, UniProt Q28037).
T1 sequence (Q28037 1-426): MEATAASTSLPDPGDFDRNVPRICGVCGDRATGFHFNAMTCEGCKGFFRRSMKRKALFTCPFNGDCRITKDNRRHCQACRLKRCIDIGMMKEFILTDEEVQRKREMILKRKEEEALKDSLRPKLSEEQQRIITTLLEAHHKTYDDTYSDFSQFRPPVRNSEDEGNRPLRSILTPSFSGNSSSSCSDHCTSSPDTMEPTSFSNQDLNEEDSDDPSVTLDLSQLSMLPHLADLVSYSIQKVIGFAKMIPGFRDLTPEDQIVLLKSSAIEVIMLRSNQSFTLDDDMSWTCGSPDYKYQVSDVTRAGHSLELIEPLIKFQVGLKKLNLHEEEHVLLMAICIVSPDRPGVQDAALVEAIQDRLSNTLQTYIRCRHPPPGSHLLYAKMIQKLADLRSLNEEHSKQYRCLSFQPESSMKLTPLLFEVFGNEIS
The note with it: versus 1,25(OH)2 D3; cited from earlier work.

For assay [1], the system named is 17 m5-TATA-CAT reporter gene responding to GAL4. The assay is described as follows: GAL4-LBD chimera transactivation, CAT reporter in transfected Cos cells. The class given is cell-based. As to conditions: Gal4 (1–147) fusion, Cos cells, 1,25(OH)2 D3 10^−7M. The text has this: b) CAT activities of the wild-type hVDR and of the mutant hVDR; these activities are indicated on the ordinate as a percentage; column 1 corresponds to the CAT activity measured in the absence of vitamin D (VD), of wild-type (wild-type) hVDR and of mutant (truncated) hVDR; column 2 corresponds to CAT activity measured in the presence of VD and in the absence of wild-type hVDR and of mutant hVDR; column 3 corresponds to CAT activity measured in the presence of wild-type hVDR and in the absence of VD and of mutant hVDR; column 4 corresponds to CAT activity measured in the presence of VD and of wild-type hVDR and in the absence of mutant hVDR; column 5 corresponds to CAT activity measured in the presence of mutant hVDR, and in the absence of VD and of wild-type hVDR; column 6 corresponds to CAT activity measured in the presence of mutant hVDR and of VD and in the absence of wild-type hVDR.
No significant change was observed between the dissociation constants of the wild-type and mutant VDRs was observed, the values being similar to that described previously for the whole receptor (Bouillon et al., 1995). […] The chimeric proteins were expressed by transfection into Cos cells, and the transactivation was measured with an appropriate reporter responding to GAL4.

On to `C=C1C(=CC=C2CCCC3(C)C2CCC3C(C)CCCC(C)(C)O)CC(O)C(C)C1O` (stereo not drawn) [2 α-methyl 1,25(OH)2 D3], for which, at VDR, the “binding affinity relative to the natural ligand” value is listed as 4 times.

B1: mutant VDR: polypeptide derived from human VDR in which residues 1–117 and 165–215 are suppressed (protein)
chain: DSLRPKLSEEQQRIIAILLDAHHKTYDPTYSDFCQFRPPVRVNDGGGSVTLELSQLSMLPHLADLVSYSIQKVIGFAKMIPGFRDLTSEDQIVLLKSSAIEVIMLRSNESFTMDDMSWTCGNQDYKYRVSDVTKAGHSLELIEPLIKFQVGLKKLNLHEEEHVLLMAICIVSPDRPGVQDAALIEAIQDRLSNTLQTYIRCRHPPPGSHLLYAKMIQKLADLRSLNEEHSKQYRCLSFQPECSMKLTPLVLEVFGNEIS
modifications: Description of the artificial sequence polypeptide derived from the nuclear receptor of the human vitamin D
notes: polypeptide derived from human VDR in which residues 1–117 and 165–215 are suppressed
Turning to B1, the “transactivation properties (CAT activity) compared with wild-type LBD” value in assay [1] is recorded as “comparable transactivation properties”.
